From PubChem BioAssay (NCI)
Values joined by “and” are separate entries in the source; they are usually repeats but may differ in a detail not shown here. Equal entries are not always repeated.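 1) Cells in 96-well plates. 2) Compound, 48 h, 5 concentrations. 3) Linear interpolation between surrounding doses. 4) Unreached endpoint = highest concentration. GI50 = concentration required for 50% inhibition of growth. At the TGI there is no net growth.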

Experiments:
Assay in all cases: DTP human tumour cell line panel, 48 h
U251 CNS = tested on: U251 CNS
MDA-MB-435 = tested on: MDA-MB-435
ACHN renal = tested on: ACHN renal
HS 578T breast = tested on: HS 578T breast
CAKI-1 renal = tested on: CAKI-1 renal
K-562 leukemia = tested on: K-562 leukemia
SK-MEL-28 melanoma = tested on: SK-MEL-28 melanoma
COLO 205 colon = tested on: COLO 205 colon
SNB-75 CNS = tested on: SNB-75 CNS
HT29 colon = tested on: HT29 colon
SK-MEL-2 melanoma = tested on: SK-MEL-2 melanoma
MDA-MB-231 breast = tested on: MDA-MB-231 breast
SK-MEL-5 melanoma = tested on: SK-MEL-5 melanoma
SR leukemia = tested on: SR leukemia

| SMILES | TGI (U251 CNS) | TGI (MDA-MB-435) | TGI (ACHN renal) | TGI (HS 578T breast) | TGI (CAKI-1 renal) | TGI (K-562 leukemia) | TGI (SK-MEL-28 melanoma) | TGI (COLO 205 colon) | TGI (SNB-75 CNS) | TGI (HT29 colon) | TGI (SK-MEL-2 melanoma) | TGI (MDA-MB-231 breast) | TGI (SK-MEL-5 melanoma) | TGI (SR leukemia) | GI50 (U251 CNS) | GI50 (K-562 leukemia) | GI50 (SNB-75 CNS) | GI50 (HT29 colon) | GI50 (SK-MEL-2 melanoma) |
| --- | --- | --- | --- | --- | --- | --- | --- | --- | --- | --- | --- | --- | --- | --- | --- | --- | --- | --- | --- |
| COc1c2c(cc3c1C(=O)c1c(O)cccc1C3=O)CC(O)CC2 (stereo not given) | > 100 µM | > 100 µM | > 100 µM | 74.1 µM | > 100 µM | > 100 µM | > 100 µM | > 100 µM | > 100 µM | > 100 µM | > 100 µM | 51.9 µM | > 100 µM | – | – | – | – | – | – |
| CC1(C)CCc2ccc(OCCC(=O)O)cc2O1 | > 100 µM | – | > 100 µM | – | > 100 µM | > 100 µM | – | > 100 µM | > 100 µM | > 100 µM | > 100 µM | – | > 100 µM | > 100 µM | – | – | – | – | – |
| Cc1ccc2c(c1)[nH]c(=S)n2C=C(C(N)=O)C(N)=O | > 100 µM | > 100 µM | > 100 µM | – | > 100 µM | – | > 100 µM | > 100 µM | > 100 µM | > 100 µM | > 100 µM | > 100 µM | > 100 µM | – | – | – | – | – | – |
| C=C1C(=O)[C@@]23CC[C@H]4[C@@](C)(CCC[C@@]4(C)C(=O)OC)[C@@H]2CC[C@]1(O)C3 | 4.67 µM and 11.3 µM | – | – | – | 2.96 µM | – | 3.24 µM and 3.32 µM | 3.83 µM and 3.18 µM | 12 µM and 6.94 µM | 3.14 µM and 2.71 µM | 2.82 µM and 3.12 µM | – | 3.65 µM | – | 2.2 µM | 0.463 µM | 3.69 µM | 0.911 µM | 1.5 µM |
| O=C1NC(N/N=C/C(O)C(O)C(O)C(O)CO)=N/C1=C\c1ccco1 (stereo not given) | > 100 µM | > 100 µM | > 100 µM | > 100 µM | > 100 µM | > 100 µM | > 100 µM | > 100 µM | > 100 µM | > 100 µM | > 100 µM | > 100 µM | > 100 µM | – | – | – | – | – | – |
| C=CCC1(O)CC(n2cc(C)c(=O)[nH]c2=O)OC1CO[Si](C)(C)C(C)(C)C (stereo not given) | > 100 µM | > 100 µM | > 100 µM | – | > 100 µM | > 100 µM | > 100 µM | 42.7 µM | > 100 µM | > 100 µM | > 100 µM | > 100 µM | > 100 µM | > 100 µM | – | – | – | – | – |
| O=C(C1OC1c1ccc(Cl)cc1)C12CC3CC(CC(C3)C1)C2 (stereo not given) | 29.2 µM | 33.1 µM | 90.1 µM | 73.9 µM | 67.5 µM | 51.2 µM | 32.5 µM | 35.7 µM | 96.1 µM | 41.9 µM | 43.6 µM | 54.8 µM | 28.6 µM | – | – | – | – | – | – |
| NC1c2c(Br)sc(N3CCCC3)c2C(=O)C1O (stereo not given) | > 50 µM | > 50 µM | > 50 µM | > 50 µM | > 50 µM | > 50 µM | – | > 50 µM | > 50 µM | > 50 µM | > 50 µM | > 50 µM | > 50 µM | – | – | – | – | – | – |
| Cc1ccc(-c2n[nH]c(Cc3nc(-c4ccc(C)cc4)n[nH]3)n2)cc1 | 33.8 µM | > 100 µM | > 100 µM | – | – | > 100 µM | > 100 µM | > 100 µM | > 100 µM | > 100 µM | > 100 µM | > 100 µM | > 100 µM | – | – | – | – | – | – |
| CCCCCCNC(=O)C(C)C1CCC2(C)C=CC(=O)C(C)=C2C1O (stereo not given) | > 100 µM | – | – | – | > 100 µM | > 100 µM | > 100 µM | > 100 µM | > 100 µM | > 100 µM | > 100 µM | – | > 100 µM | – | – | – | – | – | – |
| Cc1ccc(S(=O)(=O)NC(=O)NC(CC(N)=O)C(=O)O)cc1 (stereo not given) | > 100 µM | – | > 100 µM | > 100 µM | – | > 100 µM | > 100 µM | > 100 µM | > 100 µM | > 100 µM | > 100 µM | > 100 µM | > 100 µM | > 100 µM | – | – | – | – | – |
| CC1=CC(=O)[C@@H](O)[C@]2(C)[C@H]3[C@@]4(O)OC[C@]35[C@H]([C@@H](C)[C@H]4O)[C@@H](OC(=O)C(C)(C)CO)C(=O)O[C@@H]5C[C@@H]12 | – | 1.65 µM | 1.33 µM | 0.897 µM | 9.88 µM | > 100 µM | > 100 µM | 7 µM | 2.11 µM | 10.4 µM | 0.559 µM | – | 0.187 µM | – | – | – | – | – | – |
| NC1CC(=O)c2cscc21 (stereo not given) | > 100 µM | 64.2 µM | – | – | 29.3 µM | > 100 µM | > 100 µM | 52 µM | > 100 µM | > 100 µM | > 100 µM | > 100 µM | > 100 µM | – | – | – | – | – | – |
| N/C(=N\N=C/c1ccc(O)c(O)c1O)NO | > 83.6 µM | – | – | – | 55.3 µM | 48 µM | > 100 µM | 17.6 µM | > 46.5 µM | 35.1 µM | > 69.8 µM | – | 45.1 µM | – | – | – | – | – | – |
| Cc1nnc2n1N=C(c1ccccc1)/C(=C/c1ccc(-c3ccc(Cl)cc3)o1)S2 | 24.4 µM | 22.3 µM | 26.3 µM | > 100 µM | 29.4 µM | 47.4 µM | – | 41.5 µM | – | 44.7 µM | 27.5 µM | 33 µM | 27.2 µM | 42.1 µM | – | – | – | – | – |
| CCCCS(=O)(=O)CCC(N)P(=O)(O)O (stereo not given) | > 100 µM | > 100 µM | > 100 µM | > 100 µM | > 100 µM | > 100 µM | > 100 µM | > 100 µM | > 100 µM | > 100 µM | > 100 µM | – | > 100 µM | > 100 µM | – | – | – | – | – |
| C/C=C/C(C#N)(/C=C/c1ccccc1)OP1(=O)OC(c2ccccc2)C(C)N1C (stereo not given) | 32.8 µM | 34.9 µM | 68.7 µM | 49.9 µM | 54.8 µM | 39.3 µM | 32.7 µM | 32.1 µM | 39.4 µM | 44.7 µM | 35.9 µM | 34.9 µM | 32.1 µM | – | – | – | – | – | – |
| O=[N+]([O-])c1cccc2nc3ccccc3c(NCCCCNc3c4ccccc4nc4cccc([N+](=O)[O-])c34)c12 | 0.187 µM | – | 0.0913 µM | 0.935 µM | 0.168 µM | – | 0.522 µM | 0.173 µM | 1.83 µM | 0.0366 µM | > 100 µM | – | 0.165 µM | – | – | – | – | – | – |
| Cc1c2n(c(=O)[nH]c1=O)C1OC(CO)C(O2)C1N=[N+]=[N-] (stereo not given) | > 100 µM | – | > 100 µM | – | > 100 µM | > 100 µM | > 100 µM | > 100 µM | > 100 µM | > 100 µM | > 100 µM | – | > 100 µM | > 100 µM | – | – | – | – | – |
